This is an account of results in patent publication US8524702B2, “Substituted benzoazepines as toll-like receptor modulators” (VentiRx Pharmaceuticals, Inc., priority 2009, dated 2013).

Structures can show the parent of a compound that is named as a salt.

One assay concerns the target T1, TLR7 (Homo sapiens, UniProt Q9NYK1).
T1 sequence (Q9NYK1 27-1049): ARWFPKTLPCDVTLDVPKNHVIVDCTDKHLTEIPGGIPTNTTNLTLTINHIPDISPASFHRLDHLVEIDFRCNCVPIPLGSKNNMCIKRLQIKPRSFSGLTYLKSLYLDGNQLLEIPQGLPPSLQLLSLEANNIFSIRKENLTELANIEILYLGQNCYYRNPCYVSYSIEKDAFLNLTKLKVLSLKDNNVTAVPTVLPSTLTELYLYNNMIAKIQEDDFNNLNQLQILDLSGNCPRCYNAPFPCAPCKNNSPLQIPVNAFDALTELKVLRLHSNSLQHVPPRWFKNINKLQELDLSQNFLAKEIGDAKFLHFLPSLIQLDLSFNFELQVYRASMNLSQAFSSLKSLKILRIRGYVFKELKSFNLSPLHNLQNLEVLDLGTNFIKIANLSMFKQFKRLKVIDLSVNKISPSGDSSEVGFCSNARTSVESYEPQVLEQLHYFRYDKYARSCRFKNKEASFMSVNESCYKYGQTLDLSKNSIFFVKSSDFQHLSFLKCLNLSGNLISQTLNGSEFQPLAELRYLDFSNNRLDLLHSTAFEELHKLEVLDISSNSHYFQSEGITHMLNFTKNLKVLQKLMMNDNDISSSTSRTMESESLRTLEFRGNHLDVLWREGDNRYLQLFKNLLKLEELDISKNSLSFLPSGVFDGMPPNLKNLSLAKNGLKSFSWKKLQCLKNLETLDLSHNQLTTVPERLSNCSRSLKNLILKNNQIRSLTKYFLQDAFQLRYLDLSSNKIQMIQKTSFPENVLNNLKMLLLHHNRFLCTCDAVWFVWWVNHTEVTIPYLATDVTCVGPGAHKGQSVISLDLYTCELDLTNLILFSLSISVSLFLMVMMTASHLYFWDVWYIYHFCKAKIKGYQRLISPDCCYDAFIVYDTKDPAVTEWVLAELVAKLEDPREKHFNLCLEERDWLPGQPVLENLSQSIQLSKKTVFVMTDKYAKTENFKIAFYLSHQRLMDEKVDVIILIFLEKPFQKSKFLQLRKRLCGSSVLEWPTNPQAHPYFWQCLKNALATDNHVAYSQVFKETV
Briefly: PBMC assay for TLR7 (IFNα in supernatants by ELISA). Format: cell-based. Also noted: Peripheral blood mononuclear cells (PBMCs) from human blood were isolated; endogenous in cells; host or cells: human PBMCs. Particulars: human PBMCs incubated with compound overnight, MC50 = concentration at which 50% of the maximum induction is seen. The protocol:
(§1) Peripheral blood mononuclear cells (PBMCs) from human blood were isolated using BD Vacutainer Cell Preparation Tubes with sodium citrate. Cells were incubated with compound overnight. TLR8 activity was assayed by measuring the amount of TNFα in supernatants by ELISA. TLR7 activity was assayed by measuring the amount of IFNα in supernatants by ELISA (R&D Systems). […] The results of this assay are shown below in Tables 2 and 3.
(§2) MC50 numbers are represented as factors of ten, for example, + indicates an MC50 value of ×10^4, or a value in the tens of thousands of nanomolar (nM range); ++ indicates an MC50 value of ×10^3, or a value in the thousands; +++ indicates an MC50 value of ×10^2, or a value in the hundreds; and ++++ indicates an MC50 value of ×10^1 or 10°, or a value in the tens or ones.
(In an ELISA, binding on a coated surface is turned into a signal by an enzyme label.)

A further assay has as its target T2, TLR8 (Homo sapiens, UniProt Q9NR97).
T2 sequence (Q9NR97 27-1041): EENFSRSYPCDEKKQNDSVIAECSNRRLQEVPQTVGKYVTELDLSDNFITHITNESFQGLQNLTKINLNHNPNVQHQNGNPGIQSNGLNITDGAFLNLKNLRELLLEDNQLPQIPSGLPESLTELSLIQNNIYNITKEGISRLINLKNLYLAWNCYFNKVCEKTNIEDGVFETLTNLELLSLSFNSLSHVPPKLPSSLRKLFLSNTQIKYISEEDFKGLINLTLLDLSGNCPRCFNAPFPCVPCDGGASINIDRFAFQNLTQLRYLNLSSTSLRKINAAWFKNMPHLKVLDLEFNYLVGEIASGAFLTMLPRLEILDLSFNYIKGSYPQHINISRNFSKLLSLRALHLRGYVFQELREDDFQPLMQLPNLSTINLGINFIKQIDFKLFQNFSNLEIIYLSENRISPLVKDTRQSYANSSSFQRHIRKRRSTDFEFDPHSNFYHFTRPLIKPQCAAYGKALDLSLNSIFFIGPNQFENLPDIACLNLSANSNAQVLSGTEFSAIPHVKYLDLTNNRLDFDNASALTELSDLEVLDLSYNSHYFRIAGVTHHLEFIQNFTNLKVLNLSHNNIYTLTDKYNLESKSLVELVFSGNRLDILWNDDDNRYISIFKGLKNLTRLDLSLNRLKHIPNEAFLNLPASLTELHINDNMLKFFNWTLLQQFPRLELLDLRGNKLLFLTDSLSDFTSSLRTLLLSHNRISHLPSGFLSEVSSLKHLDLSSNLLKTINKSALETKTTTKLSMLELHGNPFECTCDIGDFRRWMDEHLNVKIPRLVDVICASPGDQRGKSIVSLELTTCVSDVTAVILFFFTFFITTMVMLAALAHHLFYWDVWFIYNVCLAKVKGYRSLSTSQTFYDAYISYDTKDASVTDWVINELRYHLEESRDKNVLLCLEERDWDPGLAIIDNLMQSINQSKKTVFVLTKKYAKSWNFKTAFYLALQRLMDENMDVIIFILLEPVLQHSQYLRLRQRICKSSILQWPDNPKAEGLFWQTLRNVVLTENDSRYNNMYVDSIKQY
Kind of assay: PBMC assay for TLR8 (TNFα in supernatants by ELISA). Format: cell-based. Details: Peripheral blood mononuclear cells (PBMCs) from human blood were isolated; endogenous in cells; host or cells: human PBMCs. Conditions: human PBMCs incubated with compound overnight, MC50 = concentration at which 50% of the maximum induction is seen. The protocol: as §1, §2

One may read the EC50 as the concentration that produces a half-maximal response. As to `CCCN(CCC)C(=O)C1=Cc2ccc(-c3cccnc3)cc2N=C(N)C1` [Compound 133, (1E,4E)-2-amino-N,N-dipropyl-8-(pyridin-3-yl)-3H-benzo[b]azepine-4-carboxamide], the EC50 on TLR7 lay within 1 to 10 µM; on TLR8, 0.001 to 0.1 µM.
The matching figures for `CCCN(CCC)C(=O)C1=Cc2ccc(-c3ccncc3)cc2N=C(N)C1` [Compound 134, (1E,4E)-2-amino-N,N-dipropyl-8-(pyridin-4-yl)-3H-benzo[b]azepine-4-carboxamide]: 1 to 10 µM and 0.1 to 1 µM.
Regarding `CCCN(CCC)C(=O)C1=Cc2ccc(-c3cccc(C#N)c3)cc2N=C(N)C1` [Compound 136, (1E,4E)-2-amino-8-(3-cyanophenyl)-N,N-dipropyl-3H-benzo[b]azepine-4-carboxamide], the results for the EC50 at TLR7 and at TLR8 were 1 to 10 µM and 0.001 to 0.1 µM, respectively.
As for `CCCN(CCC)C(=O)C1=Cc2ccc(-c3ccc(C#N)cc3)cc2N=C(N)C1` [Compound 137, (1E,4E)-2-amino-8-(4-cyanophenyl)-N,N-dipropyl-3H-benzo[b]azepine-4-carboxamide], the 50% effective concentration (EC50) is 10 to 100 µM at TLR7 and 0.001 to 0.1 µM on TLR8.
Turning to `CCCN(CCC)C(=O)C1=Cc2ccc(-c3cccc(C(=O)N(C)C)c3)cc2N=C(N)C1` [Compound 138, (1E,4E)-2-amino-8-(3-(dimethylcarbamoyl)phenyl)-N,N-dipropyl-3H-benzo[b]azepine-4-carboxamide], the EC50 on TLR7 fell in the range of 1 to 10 µM; at TLR8, 0.001 to 0.1 µM.
For the compound `CCCN(CCC)C(=O)C1=Cc2ccc(-c3ccc(C(=O)OCC)cc3)cc2N=C(N)C1` [Compound 139, ethyl 4-((1E,4E)-2-amino-4-(dipropylcarbamoyl)-3H-benzo[b]azepin-8-yl)benzoate], the EC50 at TLR7 was in the range of 1 to 10 µM; on TLR8 it was 0.1 to 1 µM.
As to `CCOC(=O)C1=Cc2ccc(-c3cccnc3)cc2N=C(N)C1` [Compound 142, (1E,4E)-ethyl 2-amino-8-(pyridin-3-yl)-3H-benzo[b]azepine-4-carboxylate], the concentration for a half-maximal effect (EC50) on TLR7 was in the range of 1 to 10 µM; at TLR8 it was 0.001 to 0.1 µM.
Turning to `CCOC(=O)C1=Cc2ccc(-c3cncnc3)cc2N=C(N)C1` [Compound 144, (1E,4E)-ethyl 2-amino-8-(pyrimidin-5-yl)-3H-benzo[b]azepine-4-carboxylate], the EC50 on TLR7 lay in the range of 1 to 10 µM; at TLR8, 0.001 to 0.1 µM.
As to `CCOC(=O)C1=Cc2ccc(-c3cccc(C(=O)N(C)C)c3)cc2N=C(N)C1` [Compound 147, (1E,4E)-ethyl 2-amino-8-(3-(dimethylcarbamoyl)phenyl)-3H-benzo[b]azepine-4-carboxylate], the EC50 on TLR7 lay within 1 to 10 µM; on TLR8, 0.1 to 1 µM.
Taken in the same sequence, the figures for `CCCN(Cc1ccccc1O)C(=O)C1=Cc2ccc(-c3ccc(C(=O)N4CCCC4)cc3)cc2N=C(N)C1` [Compound 174, (1E,4E)-2-amino-N-(2-hydroxybenzyl)-N-propyl-8-(4-(pyrrolidine-1-carbonyl)phenyl)-3H-benzo[b]azepine-4-carboxamide hydrochloride] were 1 to 10 µM and 0.1 to 1 µM.
For `CCCN(CCCO)C(=O)C1=Cc2ccc(-c3ccc(C(=O)N4CC[C@H](O)C4)cc3)cc2N=C(N)C1` [Compound 182, (1E,4E)-2-amino-N-(3-hydroxypropyl)-8-(4-((S)-3-hydroxypyrrolidine-1-carbonyl)phenyl)-N-propyl-3H-benzo[b]azepine-4-carboxamide], the EC50 is 1 to 10 µM on TLR7 and 0.001 to 0.1 µM on TLR8.
Take `CCCN(CCC)C(=O)C1=Cc2ccc(-c3cccc(O)c3)cc2N=C(N)C1` [Compound 194, (1E,4E)-2-amino-8-(3-hydroxyphenyl)-N,N-dipropyl-3H-benzo[b]azepine-4-carboxamide]: the EC50 at TLR7 was in the range of 1 to 10 µM; at TLR8 it was 0.1 to 1 µM.
Turning to `CCCN(CCC)C(=O)C1=Cc2ccc(-c3ccc(O)cc3)cc2N=C(N)C1` [Compound 195, (1E,4E)-2-amino-8-(4-hydroxyphenyl)-N,N-dipropyl-3H-benzo[b]azepine-4-carboxamide], the EC50 on TLR7 and on TLR8 was 0.1 to 1 µM in each case.
In the case of `CCCN(CCC)C(=O)C1=Cc2ccc(-c3ccccc3C(=O)OCC)cc2N=C(N)C1` [Compound 203, Ethyl 2-((1E,4E)-2-amino-4-(dipropylcarbamoyl)-3H-benzo[b]azepin-8-yl)benzoate], the EC50 lay within 1 to 10 µM on TLR7 and 0.1 to 1 µM on TLR8.
In the case of `CCCN(CCCO)C(=O)C1=Cc2ccc(-c3ccccc3C(=O)OCC)cc2N=C(N)C1` [Compound 204, Ethyl 2-((1E,4E)-2-amino-4-((3-hydroxypropyl)(propyl)carbamoyl)-3H-benzo[b]azepin-8-yl)benzoate], the EC50 was in the range of 1 to 10 µM on TLR7 and 0.1 to 1 µM on TLR8.
On to `CCCN(CCC)C(=O)C1=Cc2ccc(-c3ccc(C(=O)OC)cc3)cc2N=C(N)C1` [Compound 206, Methyl 4-((1E,4E)-2-amino-4-(dipropylcarbamoyl)-3H-benzo[b]azepin-8-yl)benzoate], for which the values for the EC50 at TLR7 and at TLR8 were 1 to 10 µM and 0.1 to 1 µM, respectively.
In the case of `CCCN(CCC)C(=O)C1=Cc2ccc(-c3ccc(C(=O)OCOCC)cc3)cc2N=C(N)C1` [Compound 207, Ethoxymethyl 4-((1E,4E)-2-amino-4-(dipropylcarbamoyl)-3H-benzo[b]azepin-8-yl)benzoate], the EC50 at TLR7 and at TLR8 was 1 to 10 µM each time.
For the compound `CCCN(CCC)C(=O)C1=Cc2ccc(-c3ccc(C(=O)OCC)c(F)c3)cc2N=C(N)C1` [Compound 210, Ethyl 4-((1E,4E)-2-amino-4-(dipropylcarbamoyl)-3H-benzo[b]azepin-8-yl)-2-fluorobenzoate], the EC50 is 1 to 10 µM on TLR7 and 0.1 to 1 µM at TLR8.
For `CCCN(CCCO)C(=O)C1=Cc2ccc(-c3ccc(C(=O)OCC)c(F)c3)cc2N=C(N)C1` [Compound 211, Ethyl 4-((1E,4E)-2-amino-4-((3-hydroxypropyl)(propyl)carbamoyl)-3H-benzo[b]azepin-8-yl)-2-fluorobenzoate], the EC50 is 1 to 10 µM at TLR7 and 0.1 to 1 µM at TLR8.
